According to patent publication US12522597B2, “Methods and compositions for modulating splicing” (Skyhawk Therapeutics, Inc., priority 2019, dated 2026):

Experiments:
[1] = system: MDR1; test: MDCK-MDR1 permeability assay (BBB penetration potential); assay type: in vitro ADME; conditions: dog; for efflux ratio at 120 min, 5 μM: MDCK-MDR1, pH 7.4, MDCK-MDR1: Efflux; for Papp A→B at 120 min, 5 μM: MDCK-MDR1, pH 7.4, MDCK-MDR1: Papp A-B; for Papp B→A at 120 min, 5 μM: MDCK-MDR1, pH 7.4, MDCK-MDR1: Papp B-A
Procedure: (§1) Each determination is performed in duplicate. […] Analytical conditions are outlined below.

[2] = system: MDR1-MDCK cell monolayers; test: as above; assay type: in vitro ADME; conditions: dog, MDCK-MDR1, 120 min, 5 μM, pH 7.4
Procedure: as §1

[3] = system: mHTT protein; test: mHTT protein assay (2B7-MW1, Mesoscale Discovery); assay type: cell-based, human; conditions: GM04724 (CAG 70/20) Huntington's disease patient lymphoblast cells, 48 hours, 2B7-MW1 MSD; read-out: HTT Potency - Protein EC50 mHTT (average)
Procedure: Compounds are tested on GM04724 (CAG 70/20) Huntington's disease patient lymphoblast cells at doses ranging from 10 μM to 0.6 nM. 4,500 cells/well are seeded in 384 well plates. One plate replica is carried out for parallel viability testing by CellTiter Glo (CTG). Compounds are incubated for 48 hours, mHTT protein levels are assessed by the 2B7-MW1 assay via Mesoscale Discovery (MSD) as previously reported (Macdonald et al., 2014). The antibody pair is comprised of previously characterized monoclonals (2B7 and MW1) interrogating two regions for HTT conformation and biological properties: the N17 domain and the polyQ domain (Baldo et al., 2012; Ko et., 2001). 2B7-MW1 is dependent on subject/animal specific levels of HTT at the time of treatment. 2B7-MW1 is dependent on polyQ expansion (e.g., the higher the expansion the higher the signal) and on mHTT size (e.g., a similar polyQ will give higher signal with smaller HTT size). The viability readout is carried out by CTG according to the manufacturer's instructions.

| SMILES | efflux ratio at 120 min, 5 μM [1] | Papp A→B at 120 min, 5 μM [1] | Papp B→A at 120 min, 5 μM [1] | MDCK-MDR1: % Recov A-B [2] | MDCK-MDR1: % Recov B-A [2] | EC50 [3] |
| --- | --- | --- | --- | --- | --- | --- |
| Oc1cc(-c2ccc3cncn3c2)ccc1-c1ccc(O[C@H]2C[C@@H]3CCC[C@@H](N3)[C@H]2F)nn1 (single isomer, unassigned) [85-ENT2] | 7 | 2.26 ×10⁻⁶ cm/s | 15.3 ×10⁻⁶ cm/s | 33% | 61% | 101 to 500 nM |
| Oc1cc(-c2nncs2)ccc1-c1ccc(O[C@@H]2C[C@H]3CCC[C@H](N3)[C@@H]2F)nn1 (single isomer, unassigned) [116-ENT1] | 8 | 7.76 ×10⁻⁶ cm/s | 59.2 ×10⁻⁶ cm/s | 88% | 91% | 16 to 50 nM |
| Oc1cc(-c2ccccn2)ccc1-c1ccc(O[C@H]2C[C@@H]3CCC[C@@H](N3)[C@H]2F)nn1 (single isomer, unassigned) [77-ENT2] | 5 | 6.32 ×10⁻⁶ cm/s | 30.2 ×10⁻⁶ cm/s | 57% | 79% | 101 to 500 nM |
| Oc1cc2cnccc2cc1-c1ccc(O[C@H]2C[C@@H]3CCC[C@@H](N3)[C@H]2F)nn1 (single isomer, unassigned) [80-ENT2] | 3 | 9.2 ×10⁻⁶ cm/s | 32.1 ×10⁻⁶ cm/s | 72% | 84% | 501 to 10000 nM |
| Cc1cc(-c2ccc(-c3ccc(O[C@@H]4C[C@H]5CCC[C@H](N5)[C@@H]4F)nn3)c(O)c2)co1 (single isomer, unassigned) [98-ENT1] | 1 | 1.13 ×10⁻⁶ cm/s | 1.39 ×10⁻⁶ cm/s | 9% | 47% | 101 to 500 nM |
| Oc1cc2cccnc2cc1-c1ccc(O[C@@H]2C[C@H]3CCC[C@H](N3)[C@@H]2F)nn1 (single isomer, unassigned) [105-ENT1] | 6 | 8.12 ×10⁻⁶ cm/s | 47.1 ×10⁻⁶ cm/s | 92% | 84% | 101 to 500 nM |
| Cc1ccc(-c2ccc(-c3ccc(O[C@H]4C[C@@H]5CCC[C@@H](N5)[C@H]4F)nn3)c(O)c2)o1 (single isomer, unassigned) [99-ENT2] | 1 | 6.11 ×10⁻⁶ cm/s | 6.02 ×10⁻⁶ cm/s | 16% | 55% | 101 to 500 nM |
| Cn1ccc(-c2ccc(-c3ccc(O[C@@H]4C[C@H]5CCC[C@H](N5)[C@@H]4F)nn3)c(O)c2)nc1=O (single isomer, unassigned) [107-ENT1] | 90 | 0.11 ×10⁻⁶ cm/s | 10 ×10⁻⁶ cm/s | 90% | 90% | 101 to 500 nM |
| Oc1cc(-c2ccc3cncn3c2)ccc1-c1ccc(O[C@@H]2C[C@H]3CCC[C@H](N3)[C@@H]2F)nn1 (single isomer, unassigned) [85-ENT1] | 6 | 2.12 ×10⁻⁶ cm/s | 12.1 ×10⁻⁶ cm/s | 33% | 66% | 101 to 500 nM |
| Oc1cc(-c2ccc3nncn3c2)ccc1-c1ccc(O[C@@H]2C[C@H]3CCC[C@H](N3)[C@@H]2F)nn1 (single isomer, unassigned) [73-ENT1] | 92 | 0.44 ×10⁻⁶ cm/s | 40.9 ×10⁻⁶ cm/s | 94% | 85% | 101 to 500 nM |
| Cc1cnc(-c2ccc(-c3ccc(O[C@@H]4C[C@H]5CCC[C@H](N5)[C@@H]4F)nn3)c(O)c2)cn1 (single isomer, unassigned) [78-ENT1] | 3 | 7.17 ×10⁻⁶ cm/s | 24.5 ×10⁻⁶ cm/s | 65% | 78% | 101 to 500 nM |
| Oc1cc(-c2ccnnc2)ccc1-c1ccc(O[C@H]2C[C@@H]3CCC[C@@H](N3)[C@H]2F)nn1 (single isomer, unassigned) [87-ENT2] | 14 | 3.9 ×10⁻⁶ cm/s | 56.1 ×10⁻⁶ cm/s | 105% | 108% | 101 to 500 nM |
| Cc1nnc(-c2ccc(-c3ccc(O[C@H]4C[C@@H]5CCC[C@@H](N5)[C@H]4F)nn3)c(O)c2)o1 (single isomer, unassigned) [94-ENT2] | 7 | 6.35 ×10⁻⁶ cm/s | 46.7 ×10⁻⁶ cm/s | 93% | 87% | 101 to 500 nM |
| Cc1cncc(-c2ccc(-c3ccc(O[C@@H]4C[C@H]5CCC[C@H](N5)[C@@H]4F)nn3)c(O)c2)n1 (single isomer, unassigned) [102-ENT1] | 6 | 7.66 ×10⁻⁶ cm/s | 43.1 ×10⁻⁶ cm/s | 89% | 90% | 101 to 500 nM |
| CNC(=O)c1ccc2cc(-c3ccc(O[C@H]4C[C@]5(C)CCC[C@@](C)(N5)[C@H]4F)nn3)c(O)cc2n1 (single isomer, unassigned) [137-ENT1] | 16 | 2.56 ×10⁻⁶ cm/s | 40.1 ×10⁻⁶ cm/s | 58% | 70% | 0.01 to 15 nM |
| Oc1cc(-c2cnn3ccccc23)ccc1-c1ccc(O[C@@H]2C[C@H]3CCC[C@H](N3)[C@@H]2F)nn1 (single isomer, unassigned) [91-ENT1] | 3 | 4.52 ×10⁻⁶ cm/s | 15.5 ×10⁻⁶ cm/s | 30% | 57% | 101 to 500 nM |
| Oc1cc(-c2nnco2)c(F)cc1-c1ccc(O[C@@H]2C[C@H]3CC[C@H](N3)[C@@H]2F)nn1 (single isomer, unassigned) [142-ENT2] | 6 | 9.4 ×10⁻⁶ cm/s | 54.5 ×10⁻⁶ cm/s | 101% | 121% | 51 to 100 nM |
| Oc1cc(-n2ccnc2)ccc1-c1ccc(O[C@@H]2C[C@H]3CC(F)(F)[C@@H](C2)N3)nn1 (single isomer, unassigned) [51-ENT1] | 2 | 32.2 ×10⁻⁶ cm/s | 51.5 ×10⁻⁶ cm/s | 90% | 99% | 501 to 10000 nM |
| Cc1nnc(-c2ccc(-c3ccc(O[C@H]4C[C@@H]5CCC[C@@H](N5)[C@H]4F)nn3)c(O)c2)s1 (single isomer, unassigned) [95-ENT2] | 9 | 3.59 ×10⁻⁶ cm/s | 33.1 ×10⁻⁶ cm/s | 78% | 87% | 101 to 500 nM |
| Cn1cc(-c2ccc(-c3ccc(O[C@@H]4C[C@H]5CCC[C@H](N5)[C@@H]4F)nn3)c(O)c2)c(F)n1 (single isomer, unassigned) [109-ENT1] | 3 | 5.54 ×10⁻⁶ cm/s | 18.9 ×10⁻⁶ cm/s | 57% | 76% | 16 to 50 nM |
| C[C@]12CC[C@](C)(N1)[C@H](F)[C@H](Oc1ccc(-c3ccc(C#N)cc3O)nn1)C2 (single isomer, unassigned) [152-ENT1] | 5 | 11.6 ×10⁻⁶ cm/s | 59.4 ×10⁻⁶ cm/s | 88% | 98% | 501 to 10000 nM |
| Oc1cc2ncccc2cc1-c1ccc(O[C@@H]2C[C@H]3CCC[C@H](N3)[C@@H]2F)nn1 (single isomer, unassigned) [103-ENT1] | 16 | 3.92 ×10⁻⁶ cm/s | 61.5 ×10⁻⁶ cm/s | 95% | 101% | 501 to 10000 nM |
| Oc1cc2ncccc2cc1-c1ccc(O[C@H]2C[C@@H]3CCC[C@@H](N3)[C@H]2F)nn1 (single isomer, unassigned) [103-ENT2] | 12 | 5.15 ×10⁻⁶ cm/s | 59.9 ×10⁻⁶ cm/s | 98% | 106% | 501 to 10000 nM |
| Oc1cc(-c2ccc3nncn3c2)ccc1-c1ccc(O[C@H]2C[C@@H]3CCC[C@@H](N3)[C@H]2F)nn1 (single isomer, unassigned) [73-ENT2] | 84 | 0.49 ×10⁻⁶ cm/s | 41.3 ×10⁻⁶ cm/s | 90% | 87% | 101 to 500 nM |
| Oc1cc(-n2ccnc2)ccc1-c1ccc(O[C@H]2C[C@@H]3CC[C@@H](N3)[C@H]2F)nn1 (single isomer, unassigned) [36-ENT2] | 5 | 5.41 ×10⁻⁶ cm/s | 28.9 ×10⁻⁶ cm/s | 61% | 73% | 51 to 100 nM |
